Measured values published in PubChem BioAssay (NCI).
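Growth conditions: 96-well plates. Treatment: test compound, 48 hours, 5 concentrations. Analysis: linear interpolation between bracketing concentrations; unreached endpoints set to highest concentration. The concentration for 50% growth inhibition is given as GI50. Definition used: TGI = concentration required for complete inhibition of growth.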

Legend:
Experiment in all cases: NCI-60 cell line screen, 48 h
A549 NSCLC = tested on: A549 NSCLC
CCRF-CEM leukemia = tested on: CCRF-CEM leukemia
HCT-116 colon = tested on: HCT-116 colon
HOP-92 NSCLC = tested on: HOP-92 NSCLC
K-562 leukemia = tested on: K-562 leukemia
KM12 colon = tested on: KM12 colon
NCI-H226 lung = tested on: NCI-H226 lung
RXF 393 renal = tested on: RXF 393 renal
UACC-257 melanoma = tested on: UACC-257 melanoma
UACC-62 melanoma = tested on: UACC-62 melanoma

| Compound | GI50 (A549 NSCLC) [µM] | TGI (A549 NSCLC) [µM] | GI50 (CCRF-CEM leukemia) [µM] | TGI (CCRF-CEM leukemia) [µM] | GI50 (HCT-116 colon) [µM] | TGI (HCT-116 colon) [µM] | GI50 (HOP-92 NSCLC) [µM] | TGI (HOP-92 NSCLC) [µM] | GI50 (K-562 leukemia) [µM] | TGI (K-562 leukemia) [µM] | GI50 (KM12 colon) [µM] | TGI (KM12 colon) [µM] | GI50 (NCI-H226 lung) [µM] | TGI (NCI-H226 lung) [µM] | GI50 (RXF 393 renal) [µM] | TGI (RXF 393 renal) [µM] | GI50 (UACC-257 melanoma) [µM] | TGI (UACC-257 melanoma) [µM] | GI50 (UACC-62 melanoma) [µM] | TGI (UACC-62 melanoma) [µM] |
| --- | --- | --- | --- | --- | --- | --- | --- | --- | --- | --- | --- | --- | --- | --- | --- | --- | --- | --- | --- | --- |
| C=C1C(=O)O[C@H]2[C@H]1CC/C(COC(=O)/C=C/c1c[nH]c3ccccc13)=C\CC[C@@]1(C)O[C@@H]21 | 1.27 | 2.71 | 0.0733 | 0.854 | 0.185 | 0.425 | 0.156 | 0.369 | 0.273 | > 100 | 0.402 | 1.64 | 0.23 | 0.702 | 0.172 | 0.331 | 0.354 | 1.46 | 0.177 | 0.379 |
| CNC(C)Cc1ccc(O)cc1 (centres undefined) |  | > 100 |  | > 100 |  | > 100 |  | > 100 |  | > 100 |  | > 100 |  | > 100 |  | > 100 |  | > 100 |  | > 100 |
| CC1(C)N=C(N)N=C(N)N1c1ccc(OCCCCNC(=O)c2ccc(S(=O)(=O)F)cc2)c(Cl)c1 | 4.17 | > 100 | 5.65 | > 100 | 3.53 | > 100 | > 100 | > 100 | 0.562 | > 100 | 8.04 | > 100 | 76 | > 100 | 8.99 | > 100 | 6.36 | > 100 | 4.27 | > 100 |
| O=C(Nc1cccc([N+](=O)[O-])c1)c1cc2ccccc2cc1O | 2.84 | > 100 | 2.38 | 6.66 | 0.772 | 3.17 | 0.422 | 4.41 | 0.845 | 11 | 2.41 | 6.44 | 1.87 | 7.43 | 2.57 | 9.05 | 0.881 | 5.23 | 0.685 |  |
| COc1ccc(/C=C/c2cnc3ccccc3n2)cc1OC |  | > 100 |  | > 100 |  | > 100 |  | > 100 |  | > 100 |  | > 100 |  | > 100 |  | > 100 |  | > 100 |  | > 100 |
| CN(C)c1ccc(N=C(C#N)c2nc(N)nc(N3CCN(c4ccccc4)CC3)n2)cc1 | 15.3 | > 34.2 | > 50 | > 50 | 17.4 | > 50 | 49.8 | > 50 | > 50 | > 50 | 49.6 | > 50 | 22.3 | > 50 | 22.1 | 39.1 | 28.1 | > 44.2 | > 50 | > 50 |
| O=C(O)c1ccc2cccnc2c1O | 0.747 | 25.8 | 0.989 | > 60.8 | 0.532 | 25 | 0.832 | 2.74 | 0.896 | > 100 | 2.02 | 25 | 1.95 | > 56 | 1.94 | 36.4 | 2.02 | 5.29 | 1.54 | 9.64 |
